Reference: US8753570B2, “Structure, synthesis, and applications for oligo phenylene ethynylenes” (STC.UNM, priority 2008, dated 2014)

Legend:
[1] = Nanosecond transient absorption spectroscopy (triplet state lifetime); type: physicochemical; details: aqueous solution
Description: (§1) The spectra are concentration independent in the micromolar concentration range and there is a small red shift in the series: S-OPE-1 (H), N-OPE-1=S-OPE-1 (COO—), S-OPE-1 (COOEt). […] Furthermore, we have also synthesized and carried out studies of S-OPE-1 (x) where x=NH2, COCH3, both of these compounds show similar absorption spectra to that of S-OPE-1 (COOEt). The fluorescence of all four compounds shown in Table 2 is strong in methanol and there is little variation in fluorescence efficiency among the different substituted derivatives. However there is a significant variation in the fluorescence efficiencies in aqueous solution ranging from 0.02 for S-OPE-1 (COOEt) to 0.80 for S-OPE-1 (H). […] Clearly the ester groups in N-OPE-1 and S-OPE-1 (COOEt) must play a major role in a solvent-dependent process which deactivates the excited singlet of the oligomers in water. Nanosecond transient absorption spectroscopy was carried out on the OPEs in order to monitor the triplet states. […] The transient lifetimes and spectra are consistent with a triplet state assignment. The 1max of triplet-triplet absorption shifts from 518 nm to 569 nm following the extent of conjugation: S-OPE1-H (518 nm), N-OPE-1 (533 nm), S-OPE-1 (COO—) (557 nm), then S-OPE-1 (COOEt) (569 nm). The apparent triplet yields decrease in the order of S-OPE-1 (H)>S-OPE-1 (COO—)>>N-OPE-1>>S-OPE-1 (COOEt). The triplet lifetimes follow a similar trend as the triplet yield (Table 2).

[2] = Self-assembly / complex formation on carboxymethylcellulose (absorption, fluorescence); type: binding; details: two-state model, dimer assumed; estimated from absorbances
Description: N-OPE:CMC complexes can be formed by adding small aliquots of CMC to aqueous solutions containing the N-OPE compound. […] [N-OPE-1]=1.5×10^−5M. […] [N-OPE-2]=1.5×10^−5 and [CMC]=0-4.2×10^−5M. Both excitation and emission slits are 2.5 nm. Excitation wavelength for N-OPE-1 is 355 nm and for N-OPE-2 is 375 nm. For both N-OPEs there are several isosbestic points in the absorption spectra as the two bands in the absorption for water alone are replaced by a spectrum of the N-OPE:CMC having two bands at longer wavelength. For both N-OPEs the fluorescence also undergoes a red shift and increase in intensity as aliquots of CMC are added, finally leveling off at moderate concentrations (greater than 1 mM) of CMC. […]
Binding constants (assuming that an N-OPE dimer is formed in each case) can be estimated from a determination of the individual absorbances of the two species following a treatment for a similar two-state system developed by Pasternack and co-workers. […]
Self-assembly is not limited solely to the non-symmetrical N-OPE compounds. […] The changes that occur for S-OPE-1 (H), N-OPE-1 and S-OPE-1 (COOEt) (sharp, red shifted absorption spectra, isosbestic points maintained throughout the CMC addition and red-shifted fluorescence) are consistent with an extension of effective conjugation for the oligomers on the carboxylate decorated surface of the CMC.

[3] = system: Pseudomonas aeruginosa Strain PAO1; test: Dark and light activated biocidal activity; type: cell-based; details: for biocidal activity: in solution and attached to surfaces; for light activated biocidal activity: short term irradiation with near ultraviolet light
Description: The OPEs described herein have been synthesized and studied as dark and light activated biocides towards a Gram negative bacterium, Pseudomonas aeruginosa Strain PAO1. […] N-OPE-1 has been attached to surfaces by covalent linkage. This has been accomplished for both micron sized glass beads and glass slides.

[4] = Fluorescence quantum yields and fluorescence lifetimes in water and methanol; type: physicochemical; details: for φf in CH3OH / φf in H2O / τ (ns): Table 2; for τ (ns): fluorescence lifetime; for fluorescence quantum efficiency: in water, quinine sulfate standard; for Φf / τf (ns): Table 1
Description: (§2) While the synthetic steps are all straight-forward, those involving conversion of the diiodobenzene to 4-(4-iodophenyl)-2-methyl-3-butyn-2-ol occur with lower yields and the desired products must be separated from structurally similar byproducts. The alkylamino groups were attached in an early step but converted to the quaternary ammonium derivatives as the last step of the synthesis. The intermediates and final products were characterized by mass spectrometry and proton and carbon NMR. […]
The absorption and fluorescence in methanol occur at very similar wavelengths. In both solvents there is no concentration dependence of the spectra in the micromolar range and it seems likely that in both solvents the N-OPE are monomeric. […] Fluorescent lifetimes in water are correspondingly shorter than in methanol.
Three symmetrical molecules, S-OPE-1 (H), S-OPE-1 (COOEt) and S-OPE-1 (COO—) show similar two-banded absorption spectra in water and methanol.
as §1

[5] = Solubility in water and polar organic solvents; type: physicochemical; details: water and polar organic solvents such as methanol
Description: as §2

[6] = exposed to bacteria in the dark, up to one hour
[7] = suspensions of Pseudomonas, much slower than light-activated

| SMILES | τTA (μs) [1] | dark biocidal activity [3, 6] | biocidal activity [3] | light activated biocidal activity [3] | φf in CH3OH [4] | φf in H2O [4] | τ (ns) ([4]; column after φf in CH3OH) | τ (ns) ([4]; column after φf in H2O) | further results |
| --- | --- | --- | --- | --- | --- | --- | --- | --- | --- |
| CCOC(=O)c1ccc(C#Cc2cc(OCCC[N+](C)(C)C)c(C#Cc3ccccc3)cc2OCCC[N+](C)(C)C)cc1.[Cl-].[Cl-] [N-OPE-1] | 107 μs | relatively inactive | active biocides both in solution and attached to surfaces | active as a biocide | 0.68 | 0.15 | 1.6 ns | 1.5 ns | binding constant K, CMC:(N-OPE)2 [2]: less accurate and slightly lower; fluorescence quantum efficiency [4]: ~15%; Φf ([4]; solvent H2O): 0.147; τf (ns) ([4]; solvent H2O): 0.78 ns; Φf ([4]; solvent Methanol): 0.68; τf (ns) ([4]; solvent Methanol): 1.57 ns; solubility [5]: readily soluble in water and polar organic solvents such as methanol |
| C[N+](C)(C)CCCOc1cc(C#Cc2ccc(C#Cc3cc(OCCC[N+](C)(C)C)c(C#Cc4ccccc4)cc3OCCC[N+](C)(C)C)cc2)c(OCCC[N+](C)(C)C)cc1C#Cc1ccccc1.[Cl-].[Cl-].[Cl-].[Cl-] [S-OPE-2 (x=H)] | – | – | – | – | – | – | – | – | light-activated biocidal activity (rank) ([3]; suspensions of Pseudomonas): S-OPE-1 (x=H)<S-OPE-2 (x=H); dark biocidal activity [3, 7]: observed |
| CCOC(=O)c1ccc(C#Cc2cc(OCCC[N+](C)(C)C)c(C#Cc3ccc(C#Cc4cc(OCCC[N+](C)(C)C)c(C#Cc5ccccc5)cc4OCCC[N+](C)(C)C)cc3)cc2OCCC[N+](C)(C)C)cc1.[Cl-].[Cl-].[Cl-].[Cl-] [N-OPE-2] | – | active against bacteria both in the dark and in the light | active biocides both in solution and attached to surfaces | active against bacteria both in the dark and in the light | – | – | – | – | fluorescence quantum efficiency [4]: over 1%; Φf ([4]; solvent H2O): 0.012; τf (ns) ([4]; solvent H2O): 0.37 ns; Φf ([4]; solvent Methanol): 0.68; τf (ns) ([4]; solvent Methanol): 0.92 ns; solubility [5]: readily soluble in water and polar organic solvents such as methanol |
| CCOC(=O)c1ccc(C#Cc2cc(OCCC[N+](C)(C)C)c(C#Cc3ccc(C(=O)OCC)cc3)cc2OCCC[N+](C)(C)C)cc1.[Cl-].[Cl-] [S-OPE-1 (COOEt)] | 77 μs | – | – | – | 0.75 | 0.023 | 1.4 ns | 1.0 ns | fluorescence efficiency in aqueous solution [4]: 0.02 |
| CCOC(=O)c1ccc(C#Cc2cc(OCCC[N+](C)(C)C)c(C#Cc3ccc(C#Cc4cc(OCCC[N+](C)(C)C)c(C#Cc5ccc(C#Cc6cc(OCCC[N+](C)(C)C)c(C#Cc7ccccc7)cc6OCCC[N+](C)(C)C)cc5)cc4OCCC[N+](C)(C)C)cc3)cc2OCCC[N+](C)(C)C)cc1.[Cl-].[Cl-].[Cl-].[Cl-].[Cl-].[Cl-] [N-OPE-3] | – | active against bacteria both in the dark and in the light | active biocides both in solution and attached to surfaces | active against bacteria both in the dark and in the light | – | – | – | – | – |
| C[N+](C)(C)CCCOc1cc(C#Cc2ccc(C#Cc3cc(OCCC[N+](C)(C)C)c(C#Cc4ccc(C#Cc5cc(OCCC[N+](C)(C)C)c(C#Cc6ccccc6)cc5OCCC[N+](C)(C)C)cc4)cc3OCCC[N+](C)(C)C)cc2)c(OCCC[N+](C)(C)C)cc1C#Cc1ccccc1.[Cl-].[Cl-].[Cl-].[Cl-].[Cl-].[Cl-] [S-OPE-3 (x=H)] | – | – | – | – | – | – | – | – | dark biocidal activity [3, 7]: observed |
| C[N+](C)(C)CCCOc1cc(C#Cc2ccccc2)c(OCCC[N+](C)(C)C)cc1C#Cc1ccccc1.[Cl-].[Cl-] [S-OPE-1 (H)] | 216 μs | – | – | – | 0.82 | 0.80 | 1.4 ns | 1.6 ns | light-activated biocidal activity (rank) ([3]; suspensions of Pseudomonas): S-OPE-1 (x=H)<S-OPE-2 (x=H); fluorescence efficiency in aqueous solution [4]: 0.80 |
| C[N+](C)(C)CCCOc1cc(C#Cc2ccc(C(=O)[O-])cc2)c(OCCC[N+](C)(C)C)cc1C#Cc1ccc(C(=O)[O-])cc1 [S-OPE-1 (COO—)] | 136 μs | – | – | – | 0.74 | 0.70 | 1.3 ns | 1.5 ns | – |
